± gives the expanded uncertainty stated by the source.
Assay: mn = molality of the nth substance listed, in mol/kg
Conditions: Liquid, m2 = 0

O [water] + NC(N)=O
Conditions | mass density [kg/m3]
274.15 K, 101 kPa, Vibrating tube method | 999.899 ± 0.084
275.15 K, 101 kPa, Vibrating tube method | 999.94 ± 0.084
276.15 K, 101 kPa, Vibrating tube method | 999.964 ± 0.083
277.15 K, 101 kPa, Vibrating tube method | 999.972 ± 0.096
278.15 K, 101 kPa, Vibrating tube method | 999.964 ± 0.083
278.15 K, 10000 kPa, Constant-volume piezometry | 1004.78 ± 0.18
278.15 K, 25000 kPa, Constant-volume piezometry | 1011.88 ± 0.26
278.15 K, 50000 kPa, Constant-volume piezometry | 1023.2 ± 0.45
278.15 K, 75000 kPa, Constant-volume piezometry | 1033.92 ± 0.66
278.15 K, 100000 kPa, Constant-volume piezometry | 1044.08 ± 0.87
279.15 K, 101 kPa, Vibrating tube method | 999.94 ± 0.083
280.15 K, 101 kPa, Vibrating tube method | 999.901 ± 0.083
281.15 K, 101 kPa, Vibrating tube method | 999.848 ± 0.083
282.15 K, 101 kPa, Vibrating tube method | 999.781 ± 0.083
283.15 K, 101 kPa, Vibrating tube method | 999.699 ± 0.083
288.15 K, 10000 kPa, Constant-volume piezometry | 1003.66 ± 0.18
288.15 K, 25000 kPa, Constant-volume piezometry | 1010.42 ± 0.27
288.15 K, 50000 kPa, Constant-volume piezometry | 1021.21 ± 0.46
288.15 K, 75000 kPa, Constant-volume piezometry | 1031.47 ± 0.67
288.15 K, 100000 kPa, Constant-volume piezometry | 1041.23 ± 0.88
298.15 K, 10000 kPa, Constant-volume piezometry | 1001.46 ± 0.19
298.15 K, 25000 kPa, Constant-volume piezometry | 1007.99 ± 0.28
298.15 K, 50000 kPa, Constant-volume piezometry | 1018.44 ± 0.47
298.15 K, 75000 kPa, Constant-volume piezometry | 1028.38 ± 0.68
298.15 K, 100000 kPa, Constant-volume piezometry | 1037.86 ± 0.88
308.15 K, 10000 kPa, Constant-volume piezometry | 998.36 ± 0.2
308.15 K, 25000 kPa, Constant-volume piezometry | 1004.74 ± 0.29
308.15 K, 50000 kPa, Constant-volume piezometry | 1014.97 ± 0.48
308.15 K, 75000 kPa, Constant-volume piezometry | 1024.71 ± 0.69
308.15 K, 100000 kPa, Constant-volume piezometry | 1034.01 ± 0.89
323.15 K, 101 kPa, Vibrating tube method | 988.03 ± 0.087
323.15 K, 10000 kPa, Constant-volume piezometry | 992.3 ± 0.21
323.15 K, 25000 kPa, Constant-volume piezometry | 998.61 ± 0.3
323.15 K, 50000 kPa, Constant-volume piezometry | 1008.68 ± 0.5
323.15 K, 75000 kPa, Constant-volume piezometry | 1018.27 ± 0.7
323.15 K, 100000 kPa, Constant-volume piezometry | 1027.42 ± 0.91
333.15 K, 101 kPa, Vibrating tube method | 983.191 ± 0.087

From the NIST ThermoML archive (doi:10.1016/j.jct.2018.01.024)
